# From patent US9968573B2, “Endoprosthesis having and active substance coating” (HEMOTEQ AG, priority 2011, dated 2018)
# Like-named read-outs stand apart in the source and are kept apart here.
# Columns and labels:
# [1] = system: L929 cell line; test: In vitro cytotoxicity, growth inhibition of L929 cell line; assay type: cell-based; conditions: 68-72 h
# Procedure: The cytotoxic effect was tested on the growth inhibition of L929 cell line after incubation period of 68-72 h for 6 different concentrations according to relevant, valid DIN and ISO standards. DMEM 10% FCS was used as a negative control and the positive control was 5% DMSO in DMEM 10% FCS
# [2] = system: partially resistant Staphylococcus aureus strains; conditions: gentamicin as a pure substance (Alt et al., 2004); cited from earlier work
# [3] = system: Staphylococcus aureus (ATCC 6538); conditions: Ti-Cylinder, rough surface
# Procedure: Then, the minimum inhibitory concentration (MIC) for Staphylococcus aureus (ATCC 6538) is determined over a serial dilution series according to DIN 58940 (Part 7).
# [4] = system: L929 cells; conditions: Ti-Cylinder, rough surface, 24 h extract, L929 68 h
# Procedure: This allows a conclusion on the proliferation of the cells during incubation.
# [5] = system: partially resistant Staphylococcus aureus strains; conditions: conversion of literature MIC to gentamicin pantothenate per cm^2
# Procedure: For this purpose, coarse-blasted titanium cylinders were coated by pipetting with different amounts of ethanolic gentamicin-5-pantothenate solution and after drying the coating mass was determined by weighing. The coated titanium tubes were then γ-sterilized.
# Approximate values for the upper limit and lower limit of the amount of coating on the test specimens were derived using data already known to cytotoxicity of gentamicin as a pure substance. […] The upper limit of the samples was determined on the basis of model calculations in combination with experimentally specifically determined data of cytotoxicity of gentamicin sulfate.
compound,measurement,setting,value
CCCCCCCCCCCCCCCC(=O)O [palmitic acid],GI (growth inhibition of the cell line L929),"[1]; c 0.005 mg/mL, n = 3, solvent 0.5% ethanol",2%
same,GI (growth inhibition of the cell line L929),"[1]; c 0.01 mg/mL, n = 3, solvent 0.5% ethanol",5%
same,GI (growth inhibition of the cell line L929),"[1]; c 0.02 mg/mL, n = 3, solvent 0.5% ethanol",8%
same,GI (growth inhibition of the cell line L929),"[1]; c 0.03 mg/mL, n = 3, solvent 0.5% ethanol",17%
same,GI (growth inhibition of the cell line L929),"[1]; c 0.04 mg/mL, n = 3, solvent 0.5% ethanol",22%
same,GI (growth inhibition of the cell line L929),"[1]; c 0.05 mg/mL, n = 3, solvent 0.5% ethanol",30%
gentamicin sulfate,GI (growth inhibition of the cell line L929),"[1]; c 0.3 mg/mL, n = 3",4%
same,GI (growth inhibition of the cell line L929),"[1]; c 0.6 mg/mL, n = 3",8%
same,GI (growth inhibition of the cell line L929),"[1]; c 1.2 mg/mL, n = 3",12%
same,GI (growth inhibition of the cell line L929),"[1]; c 1.8 mg/mL, n = 3",12%
same,GI (growth inhibition of the cell line L929),"[1]; c 2.4 mg/mL, n = 3",22%
same,GI (growth inhibition of the cell line L929),"[1]; c 3.0 mg/mL, n = 3",29%
calcium pantothenate [Ca pantothenate],GI (growth inhibition of the cell line L929),"[1]; c 0.3 mg/mL, n = 3",0%
same,GI (growth inhibition of the cell line L929),"[1]; c 0.6 mg/mL, n = 3",0%
same,GI (growth inhibition of the cell line L929),"[1]; c 1.2 mg/mL, n = 3",4%
same,GI (growth inhibition of the cell line L929),"[1]; c 1.8 mg/mL, n = 3",7%
same,GI (growth inhibition of the cell line L929),"[1]; c 2.4 mg/mL, n = 3",1%
same,GI (growth inhibition of the cell line L929),"[1]; c 3.0 mg/mL, n = 3",2%
O=C(O)c1ccccc1 [benzoic acid],GI (growth inhibition of the cell line L929),"[1]; c 0.3 mg/mL, n = 3",10%
same,GI (growth inhibition of the cell line L929),"[1]; c 0.6 mg/mL, n = 3",20%
same,GI (growth inhibition of the cell line L929),"[1]; c 0.9 mg/mL, n = 3",35%
same,GI (growth inhibition of the cell line L929),"[1]; c 1.5 mg/mL, n = 3",50%
same,GI (growth inhibition of the cell line L929),"[1]; c 2.1 mg/mL, n = 3",64%
same,GI (growth inhibition of the cell line L929),"[1]; c 3.0 mg/mL, n = 3",77%
gentamicin,minimum inhibitory concentration,[2],64 µg/mL
O=C(O)c1ccccc1O [salicylic acid],GI (growth inhibition of the cell line L929),"[1]; c 0.1 mg/mL, n = 3",16%
same,GI (growth inhibition of the cell line L929),"[1]; c 0.3 mg/mL, n = 3",19%
same,GI (growth inhibition of the cell line L929),"[1]; c 0.5 mg/mL, n = 3",42%
same,GI (growth inhibition of the cell line L929),"[1]; c 0.8 mg/mL, n = 3",54%
same,GI (growth inhibition of the cell line L929),"[1]; c 1.1 mg/mL, n = 3",67%
same,GI (growth inhibition of the cell line L929),"[1]; c 1.3 mg/mL, n = 3",74%
Gentamicin-Penta-Pantothenate,calculated MIC,[3]; 20 μg/cm^2,50 µg/mL
same,calculated MIC,[3]; 50 μg/cm^2,62.5 µg/mL
same,calculated MIC,[3]; 100 μg/cm^2,31.25 µg/mL
same,Growth Inhibition,[4]; 700 μg/cm^2,23%
same,Growth Inhibition,[4]; 800 μg/cm^2,18%
same,Growth Inhibition,[4]; 900 μg/cm^2,20%
same,mathematically required minimum dose (lower limit),[5],28 μg/cm^2
